Measurements published in ChEMBL document CHEMBL1141412, “Search for cell motility and angiogenesis inhibitors with potential anticancer activity: beauvericin and other constituents of two endophytic strains of Fusarium oxysporum” (J Nat Prod, 2007).
Calls of active or inactive are those of the source. The rule behind the calls is not given here.

What was measured:
[1] = test system: NCI-H460; test: Cytotoxicity against human NCI-H460 cells at 4 ug/mL after 72 hrs by MTT assay; type: cell-based; settings: nci-h460, 72 h
[2] = test system: MIA PaCa-2; test: Cytotoxicity against human MIAPaCa2 cells at 4 ug/mL after 72 hrs by MTT assay; type: cell-based; settings: mia paca-2, 72 h
[3] = test system: MCF7; test: Cytotoxicity against human MCF7 cells at 4 ug/mL after 72 hrs by MTT assay; type: cell-based; settings: mcf7, 72 h
[4] = test system: SF-268; test: Cytotoxicity against human SF268 cells at 4 ug/mL after 72 hrs by MTT assay; type: functional, cell-based
[5] = test system: NCI-H460; test: Cytotoxicity against human NCI-H460 cells at 2 ug/mL after 72 hrs by MTT assay; type: cell-based; settings: nci-h460, 72 h
[6] = test system: MIA PaCa-2; test: Cytotoxicity against human MIAPaCa2 cells at 2 ug/mL after 72 hrs by MTT assay; type: cell-based; settings: mia paca-2, 72 h
[7] = test system: MCF7; test: Cytotoxicity against human MCF7 cells at 2 ug/mL after 72 hrs by MTT assay; type: cell-based; settings: mcf7, 72 h
[8] = test system: SF-268; test: Cytotoxicity against human SF268 cells at 2 ug/mL after 72 hrs by MTT assay; type: functional, cell-based
[9] = test system: NCI-H460; test: Cytotoxicity against human NCI-H460 cells after 72 hrs by MTT assay; type: cell-based; settings: NCI-H460, 72 h
[10] = test system: MIA PaCa-2; test: Cytotoxicity against human MIAPaCa2 cells after 72 hrs by MTT assay; type: cell-based; settings: MIA PaCa-2, 72 h
[11] = test system: MCF7; test: Cytotoxicity against human MCF7 cells after 72 hrs by MTT assay; type: cell-based; settings: MCF7, 72 h
[12] = test system: SF-268; test: Cytotoxicity against human SF268 cells after 72 hrs by MTT assay; type: functional, cell-based; settings: SF-268, 72 h
[13] = Inhibition of cell proliferation in PC3M cells after 20 hrs by MTT assay; type: functional, cell-based; settings: Homo sapiens, PC-3M
[14] = test system: MDA-MB-231; test: Inhibition of cell proliferation in MDA-MB-231 cells after 40 hrs by MTT assay; type: functional, cell-based; settings: Homo sapiens, MDA-MB-231, 40 h
[15] = test system: HUVEC; test: Antiangiogenic activity in HUVEC-2 cells assessed as inhibition of endothelial cell network formation after 16 hrs at 3 uM; type: functional, cell-based; settings: Homo sapiens
[16] = Antiangiogenic activity in HUVEC-2 cells assessed as inhibition of endothelial cell network formation after 16 hrs; type: functional, cell-based; settings: Homo sapiens

COC1=CC(=O)c2c(cc3oc4cc(OC)cc(C)c4c(=O)c3c2O)C1=O
Activity [1]: Not Active
Activity [2]: Not Active
Activity [3]: Not Active
Activity [4]: inactive
Activity [5]: Not Active
Activity [6]: Not Active
Activity [7]: Not Active
Activity [8]: inactive

CC(C)[C@@H]1OC(=O)[C@@H](Cc2ccccc2)N(C)C(=O)[C@H](C(C)C)OC(=O)[C@@H](Cc2ccccc2)N(C)C(=O)[C@H](C(C)C)OC(=O)[C@@H](Cc2ccccc2)N(C)C1=O [BEAUVERICIN]
IC50 [9]: 1410 nM
IC50 [10]: 1660 nM
IC50 [11]: 1810 nM
IC50 [12]: 2290 nM
IC25 [13]: 2300 nM
IC50 [13]: 3800 nM
IC25 [14]: 6400 nM
IC50 [14]: 7500 nM
Activity [15]: Active
IC25 [16]: 5000 nM
IC50 [16]: 7500 nM

COC1=CC(=O)c2c(c(O)c3oc4cc(OC)cc(C)c4c(=O)c3c2O)C1=O [BIKAVERIN]
IC50 [9]: 430 nM
IC50 [10]: 260 nM
IC50 [11]: 420 nM
IC50 [12]: 380 nM

COc1cccc2c1C(=O)c1c(O)c3c(c(O)c1C2=O)C[C@@](O)(C(=O)CO)C[C@@H]3O[C@H]1C[C@H](N)[C@H](O)[C@H](C)O1 [DOXORUBICIN]
IC50 [9]: 10 nM
IC50 [10]: 50 nM
IC50 [12]: 40 nM
